Here are results for 20 molecules from PubChem BioAssay AID330 (DTP/NCI, 2004).

This assay relates to P388 leukemia ip, CD2F1 mice, survival T/C. Description: NCI In Vivo Anticancer Drug Screen. Data for tumor model P388 Leukemia (intraperitoneal) in CD2F1 (CDF1) mice. The settings on record: endpoint: median survival time, higher = longer survival. In outline:
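Mice carrying the transplanted tumor received test compound or vehicle. Survival was recorded in each group, and the value is the treated-group measurement divided by that of the vehicle-treated control group.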

[1] abbreviates: dose: 60.0 mg/kg/injection, schedule: Q01DX005 (ip), vehicle: saline with Tween-80.
[2] abbreviates: dose: 100.0 mg/kg/injection, schedule: Q04DX002 (ip), vehicle: Klucel (hydroxypropylcellulose) (HPC).
Where [3] appears, read: dose: 200.0 mg/kg/injection, schedule: Q04DX002 (ip), vehicle: Klucel (hydroxypropylcellulose) (HPC).
The mark [4] stands for this setting: dose: 400.0 mg/kg/injection, schedule: Q04DX002 (ip), vehicle: Klucel (hydroxypropylcellulose) (HPC).
Where [5] appears, read: dose: 50.0 mg/kg/injection, schedule: Q01DX005 (ip), vehicle: saline with Tween-80.
Setting [6] is: dose: 100.0 mg/kg/injection, schedule: Q01DX005 (ip), vehicle: saline with Tween-80.
Setting [7] is: dose: 200.0 mg/kg/injection, schedule: Q01DX005 (ip), vehicle: saline with Tween-80.

“And” between values parts separate entries of the source, which are not always exact repeats. Identical values can stand only once. Toxic doses and inconclusive results are not listed.

As to `COc1ccc(CC(O)c2cc(OC)c(OC)c(OC)c2)cc1O` (centres undefined), the T/C (dose: 2.5 mg/kg/injection, schedule: Q01DX009 (ip), vehicle: saline + alcohol) was 108 % of control; the T/C (dose: 5.0 mg/kg/injection, schedule: Q01DX009 (ip), vehicle: saline + alcohol) was 118 % of control; the T/C (dose: 10.0 mg/kg/injection, schedule: Q01DX009 (ip), vehicle: saline + alcohol) is 114 % of control; the T/C (dose: 20.0 mg/kg/injection, schedule: Q01DX009 (ip), vehicle: saline + alcohol) was 101 % of control; the T/C (dose: 22.5 mg/kg/injection, schedule: Q01DX009 (ip), vehicle: saline + Tween-80 + alcohol) was 108 % of control; the T/C (dose: 45.0 mg/kg/injection, schedule: Q01DX009 (ip), vehicle: saline + Tween-80 + alcohol) is 114 % of control. The T/C was 107 % of control (dose: 90.0 mg/kg/injection, schedule: Q01DX009 (ip), vehicle: saline + Tween-80 + alcohol) and 123 % of control (dose: 180.0 mg/kg/injection, schedule: Q01DX009 (ip), vehicle: saline + Tween-80 + alcohol).
`N#C[C@H]1C[C@@H](c2ccccc2)N(c2ccccc2)O1`: the T/C (dose: 50.0 mg/kg/injection, schedule: Q01DX005 (ip), vehicle: saline + Tween-80 + alcohol) is 98 % of control; the T/C (dose: 100.0 mg/kg/injection, schedule: Q01DX005 (ip), vehicle: saline + Tween-80 + alcohol) was 100 % of control; the T/C (dose: 200.0 mg/kg/injection, schedule: Q01DX005 (ip), vehicle: saline + Tween-80 + alcohol) was 100 % of control.
For the molecule `C=CC(N)[Si](CC)(CC)CC` (centres undefined), the T/C is 106 % of control under setting [1] and 101 % of control (dose: 120.0 mg/kg/injection, schedule: Q01DX005 (ip), vehicle: saline with Tween-80).
Consider `COc1ccccc1NC(N)=S`, for which the T/C is, setting by setting: (dose: 25.0 mg/kg/injection, schedule: Q01DX009 (ip), vehicle: Klucel (hydroxypropylcellulose) (HPC)) 96 % of control; (dose: 50.0 mg/kg/injection, schedule: Q01DX009 (ip), vehicle: Klucel (hydroxypropylcellulose) (HPC)) 98 % of control; (dose: 100.0 mg/kg/injection, schedule: Q01DX009 (ip), vehicle: Klucel (hydroxypropylcellulose) (HPC)) 96 % of control; (dose: 200.0 mg/kg/injection, schedule: Q01DX009 (ip), vehicle: Klucel (hydroxypropylcellulose) (HPC)) 97 % of control.
On to `COC(=O)C12CC(CCC1C13CC=CC(C)(C)C1C(=O)OC3)C(C)C2=O` (centres undefined), for which the T/C (dose: 100.0 mg/kg/injection, schedule: Q04DX002 (ip), vehicle: saline with Tween-80) is 92 % of control; the T/C (dose: 200.0 mg/kg/injection, schedule: Q04DX002 (ip), vehicle: saline with Tween-80) is 95 % of control; the T/C (dose: 400.0 mg/kg/injection, schedule: Q04DX002 (ip), vehicle: saline with Tween-80) is 103 % of control.
Regarding `C[N+]1(C)CCC(C(=O)c2ccccc2)CC1`, the T/C is 108 % of control (dose: 6.25 mg/kg/injection, schedule: Q01DX005 (ip), vehicle: saline); 96 % of control (dose: 12.5 mg/kg/injection, schedule: Q01DX005 (ip), vehicle: saline); 95 % of control (dose: 25.0 mg/kg/injection, schedule: Q01DX005 (ip), vehicle: saline).
Regarding `O=C1OCc2c1cc1n(c2=O)Cc2cc3ccccc3nc2-1`, the T/C reads like this: (dose: 1.0 mg/kg/injection, schedule: Q01DX009 (ip), vehicle: saline with Tween-80) 99 % of control and 114 % of control and 115 % of control; (dose: 2.0 mg/kg/injection, schedule: Q01DX009 (ip), vehicle: saline with Tween-80) 105 % of control.
For the molecule `CN(O)C1(/C(N)=N/O)C(C2COC(C)(C)O2)OC2OC(C)(C)OC21` (centres undefined), the T/C was 106 % of control under setting [2], 106 % of control under setting [3] and 105 % of control under setting [4].
Turning to `COc1cc2c(cc1OC)C(C)N(C)c1c-2c(OC(C)=O)cc2cc(OC)c(OC)cc12` (centres undefined), the T/C was 97 % of control under setting [5], 100 % of control under setting [6] and 92 % of control under setting [7].
Consider `CC1(C)OCC(CO)(Nc2nc(N3CC3)nc(N3CC3)n2)CO1`, for which the T/C (dose: 0.62 mg/kg/injection, schedule: Q01DX009 (ip), vehicle: saline) was 120 % of control; the T/C (dose: 1.25 mg/kg/injection, schedule: Q01DX009 (ip), vehicle: saline) was 158 % of control and 164 % of control; the T/C (dose: 2.5 mg/kg/injection, schedule: Q01DX009 (ip), vehicle: saline) was 199 % of control and 229 % of control; the T/C (dose: 3.75 mg/kg/injection, schedule: Q01DX009 (ip), vehicle: saline) was 187 % of control; the T/C (dose: 5.0 mg/kg/injection, schedule: Q01DX009 (ip), vehicle: saline) was 89 % of control and 98 % of control.
On to `CC(C)=Cc1ccccc1C1(C)C(c2ccccc2)=C1c1ccccc1`, for which the T/C is, setting by setting: under setting [2], 100 % of control; under setting [3], 98 % of control; under setting [4], 98 % of control.
Regarding `CS(=O)(=O)OCC(F)(F)COS(C)(=O)=O`, the T/C was 94 % of control under setting [5], 100 % of control under setting [6] and 99 % of control under setting [7].
Consider `COc1ccc2c(c1)CN(Cc1c(Cl)cccc1Cl)CO2`, for which the T/C runs as follows: (dose: 25.0 mg/kg/injection, schedule: Q01DX005 (ip), vehicle: Klucel (hydroxypropylcellulose) (HPC)) 98 % of control; (dose: 50.0 mg/kg/injection, schedule: Q01DX005 (ip), vehicle: Klucel (hydroxypropylcellulose) (HPC)) 115 % of control and 97 % of control; (dose: 100.0 mg/kg/injection, schedule: Q01DX005 (ip), vehicle: Klucel (hydroxypropylcellulose) (HPC)) 103 % of control and 92 % of control; (dose: 200.0 mg/kg/injection, schedule: Q01DX005 (ip), vehicle: Klucel (hydroxypropylcellulose) (HPC)) 89 % of control.
On to `Cc1ccc(S(=O)(=O)NCCC(=O)Nc2ccccc2)cc1`, for which the T/C is 102 % of control (dose: 25.0 mg/kg/injection, schedule: Q01DX009 (ip), vehicle: other); 103 % of control (dose: 50.0 mg/kg/injection, schedule: Q01DX009 (ip), vehicle: other); 103 % of control (dose: 100.0 mg/kg/injection, schedule: Q01DX009 (ip), vehicle: other); 102 % of control (dose: 200.0 mg/kg/injection, schedule: Q01DX009 (ip), vehicle: other); 96 % of control (dose: 400.0 mg/kg/injection, schedule: Q01DX009 (ip), vehicle: other).
In the case of `COc1cc(C(NC(N)=O)c2cc3c(cc2O)OCO3)cc(OC)c1O` (centres undefined), the T/C was 100 % of control (dose: 60.0 mg/kg/injection, schedule: Q01DX005 (ip), vehicle: Klucel + Tween-80); 88 % of control (dose: 120.0 mg/kg/injection, schedule: Q01DX005 (ip), vehicle: Klucel + Tween-80); 88 % of control (dose: 240.0 mg/kg/injection, schedule: Q01DX005 (ip), vehicle: Klucel + Tween-80).
Consider `Clc1cccc(NCNC2Nc3ccccc3N2)c1`, for which the T/C runs as follows: (dose: 15.0 mg/kg/injection, schedule: Q01DX005 (ip), vehicle: saline with Tween-80) 96 % of control; (dose: 30.0 mg/kg/injection, schedule: Q01DX005 (ip), vehicle: saline with Tween-80) 97 % of control; under setting [1], 93 % of control.
In the case of `COc1ccc(OC)c(CC=C(C)C)c1`, the T/C (dose: 15.25 mg/kg/injection, schedule: Q01DX009 (ip), vehicle: Klucel (hydroxypropylcellulose) (HPC)) was 100 % of control; the T/C (dose: 30.5 mg/kg/injection, schedule: Q01DX009 (ip), vehicle: Klucel (hydroxypropylcellulose) (HPC)) was 97 % of control; the T/C (dose: 61.0 mg/kg/injection, schedule: Q01DX009 (ip), vehicle: Klucel (hydroxypropylcellulose) (HPC)) is 107 % of control; the T/C (dose: 122.0 mg/kg/injection, schedule: Q01DX009 (ip), vehicle: Klucel (hydroxypropylcellulose) (HPC)) was 100 % of control.
Turning to `O=C1c2ccccc2C(=O)N1CC1CC(S(=O)(=O)c2ccccc2)=NO1` (centres undefined), the T/C by setting is: under setting [5], 94 % of control; under setting [6], 94 % of control; under setting [7], 102 % of control.
With `CS/N=C(\c1ccccc1)N(C)C`, the T/C by setting is: (dose: 7.5 mg/kg/injection, schedule: Q01DX005 (ip), vehicle: Klucel (hydroxypropylcellulose) (HPC)) 97 % of control; (dose: 15.0 mg/kg/injection, schedule: Q01DX005 (ip), vehicle: Klucel (hydroxypropylcellulose) (HPC)) 100 % of control.
For the molecule `N#Cc1cccc(/C=C\C(=O)c2ccccc2)c1`, the T/C is 88 % of control (dose: 50.0 mg/kg/injection, schedule: Q01DX009 (ip), vehicle: saline); 100 % of control (dose: 100.0 mg/kg/injection, schedule: Q01DX009 (ip), vehicle: saline); 92 % of control (dose: 200.0 mg/kg/injection, schedule: Q01DX009 (ip), vehicle: saline).
